Data taken from paper PMC1810525, “Antagonism of the prostaglandin D2 receptor CRTH2 attenuates asthma pathology in mouse eosinophilic airway inflammation” (Respiratory Research, 2007).

How the values were obtained:
[1] = molecular target: T1, Glucocorticoid (Homo sapiens, UniProt P04150); assay: Profiling panel, radioligand binding Glucocorticoid; conditions: 10 μM
T1 sequence (P04150 1-777): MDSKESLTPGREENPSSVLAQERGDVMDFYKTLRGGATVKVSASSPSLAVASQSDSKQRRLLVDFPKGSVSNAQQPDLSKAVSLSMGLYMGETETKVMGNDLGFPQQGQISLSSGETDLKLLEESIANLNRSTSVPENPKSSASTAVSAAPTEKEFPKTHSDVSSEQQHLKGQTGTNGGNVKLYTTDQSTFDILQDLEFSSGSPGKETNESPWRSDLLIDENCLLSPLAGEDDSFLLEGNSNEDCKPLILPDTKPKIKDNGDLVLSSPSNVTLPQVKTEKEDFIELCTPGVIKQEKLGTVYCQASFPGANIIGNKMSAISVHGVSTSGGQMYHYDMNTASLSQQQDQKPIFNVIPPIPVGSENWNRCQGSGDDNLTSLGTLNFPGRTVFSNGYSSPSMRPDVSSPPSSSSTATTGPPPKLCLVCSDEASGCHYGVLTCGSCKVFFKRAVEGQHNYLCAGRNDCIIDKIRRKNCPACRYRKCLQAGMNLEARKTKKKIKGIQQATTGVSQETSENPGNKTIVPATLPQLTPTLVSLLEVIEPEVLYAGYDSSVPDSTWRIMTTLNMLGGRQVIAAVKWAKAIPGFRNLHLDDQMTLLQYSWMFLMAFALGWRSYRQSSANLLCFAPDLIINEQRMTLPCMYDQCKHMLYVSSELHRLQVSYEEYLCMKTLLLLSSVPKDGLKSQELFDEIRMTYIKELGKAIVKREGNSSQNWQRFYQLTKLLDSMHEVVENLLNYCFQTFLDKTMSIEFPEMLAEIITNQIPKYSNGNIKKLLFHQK
Experimental: (§1) All assays were performed using recombinant human receptors and enzymes, and included the appropriate controls for assay validation. Enzymatic and binding assays, except for muscarinic binding, were performed by CEREP in vitro pharmacology profiling services. […] For stimulation of C3a, C5a, and ChemR23 receptors in InsP assays the following agonists were used: human recombinant C3a (C3a receptor), human recombinant C5a (C5a receptor), and the nonapeptide Chemerin (ChemR23).

[2] = molecular target: T2, mCRTH2 (Mus musculus, UniProt Q9Z2J6); assay: Inositol phosphate accumulation assay, mCRTH2-HEK cells (Schild analysis vs PGD2); type: cell-based; conditions: PGD2 concentration-response, InsP
T2 construct: expressed in transfected cells
T2 sequence (Q9Z2J6 1-382): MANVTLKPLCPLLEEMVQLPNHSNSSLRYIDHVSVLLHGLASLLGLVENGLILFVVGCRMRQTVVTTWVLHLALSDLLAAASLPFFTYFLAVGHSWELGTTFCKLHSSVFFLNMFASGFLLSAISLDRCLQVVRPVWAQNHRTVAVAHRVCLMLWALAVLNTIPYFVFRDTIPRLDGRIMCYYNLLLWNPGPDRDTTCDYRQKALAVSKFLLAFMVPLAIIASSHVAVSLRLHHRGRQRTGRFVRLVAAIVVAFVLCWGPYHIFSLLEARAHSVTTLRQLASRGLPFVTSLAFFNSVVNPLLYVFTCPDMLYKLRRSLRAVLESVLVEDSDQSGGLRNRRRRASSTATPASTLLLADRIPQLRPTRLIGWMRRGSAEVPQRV
Excerpt: The coding sequence of mCRTH2 (genbank accession no. AF054507) was amplified by PCR from mouse hippocampus cDNA and inserted into the pcDNA3.1(+) expression vector (invitrogen). A HEK293 cell line, stably expressing mCRTH2 (hereafter referred to as mCRTH2-HEK cells) was generated under G418 (Gibco #11811) selection and used as described below in whole cell binding and functional inositol phosphate accumulation assays. The coding sequence of mTP (genbank accession no. D10849) was amplified by PCR from mouse spleen cDNA and inserted into pcDNA3.1(+). HEK293 cells were transiently transfected with mTP as described and assayed after 48 hr as outlined below.
mCRTH2-HEK or HEK cells transiently transfected with mTP were seeded at a density of 30.000 cells/well in poly-D-lysine coated 96-well tissue culture plates and labeled by overnight incubation in medium containing 5 μCi myo- [2-^3H]-inositol (TRK911, Amersham Biosciences). After washing, cells were stimulated with the respective ligands in the presence of 5 mM LiCl (HBSS, GIBCO cat. 14025–050, 45 min, 37°C) and the inositol phosphate fraction was quantified using a scintillation proximity assay (SPA) as described previously. To facilitate inositol phosphate generation by the Gi-selective CRTH2 receptor, mCRTH2-HEK cells were transiently transfected with a promiscuous Gα protein [29].
was performed using the Prism 3.0 software (GraphPad Software, San Diego) as described previously with the following exceptions: Binding data from competition binding assays were normalized to percent of specific binding of [^3H]PGD2 or [^3H]SQ29548 and the Ki was then determined using the Cheng-Prusoff equation Ki = IC50/(1+L/Kd), where L is the concentration of radioactive ligand and Kd is its dissociation constant. For Schild analysis, global fitting using the Gaddum/Schild competitive interaction model was applied after the functional concentration-response curves for the agonists PGD2 or U46619 in the absence or presence of various antagonist concentrations were normalized to percent of the maximal response obtained by agonist alone.

[3] = molecular target: T3, ChemR23 (Homo sapiens, UniProt Q99788); assay: Profiling panel, functional InsP ChemR23; type: cell-based; conditions: 10 μM
T3 sequence (Q99788 1-373): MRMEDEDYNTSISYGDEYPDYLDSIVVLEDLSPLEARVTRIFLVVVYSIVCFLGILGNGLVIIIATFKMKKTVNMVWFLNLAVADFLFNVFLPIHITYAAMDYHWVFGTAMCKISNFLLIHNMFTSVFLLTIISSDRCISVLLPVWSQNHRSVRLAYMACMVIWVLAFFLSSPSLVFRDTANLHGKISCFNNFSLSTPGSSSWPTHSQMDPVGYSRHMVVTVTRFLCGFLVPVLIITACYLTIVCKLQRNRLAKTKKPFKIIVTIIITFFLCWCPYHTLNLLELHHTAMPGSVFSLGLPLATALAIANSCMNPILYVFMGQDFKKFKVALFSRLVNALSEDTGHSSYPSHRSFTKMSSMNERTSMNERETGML

[4] = molecular target: T4, C3a (Homo sapiens, UniProt Q16581); assay: Profiling panel, functional InsP C3a receptor; type: cell-based; conditions: 10 μM
T4 sequence (Q16581 1-482): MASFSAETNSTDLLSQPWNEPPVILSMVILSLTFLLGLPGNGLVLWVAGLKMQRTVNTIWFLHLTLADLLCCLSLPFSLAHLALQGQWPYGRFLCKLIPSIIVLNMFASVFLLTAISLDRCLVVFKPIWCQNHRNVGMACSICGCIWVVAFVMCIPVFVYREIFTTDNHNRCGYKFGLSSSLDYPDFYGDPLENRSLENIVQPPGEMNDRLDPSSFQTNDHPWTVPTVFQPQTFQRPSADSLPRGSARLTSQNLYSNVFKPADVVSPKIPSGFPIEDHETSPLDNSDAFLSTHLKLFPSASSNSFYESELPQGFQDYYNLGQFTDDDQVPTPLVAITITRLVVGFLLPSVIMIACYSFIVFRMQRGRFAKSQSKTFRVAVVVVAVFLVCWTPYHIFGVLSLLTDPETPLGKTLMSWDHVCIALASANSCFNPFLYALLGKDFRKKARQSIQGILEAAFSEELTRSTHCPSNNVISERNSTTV

[5] = molecular target: COX1 (Homo sapiens, UniProt P23219); assay: Profiling panel, enzymatic assay COX1; type: biochemical; conditions: 10 μM
Chain of COX1 (P23219 24-599): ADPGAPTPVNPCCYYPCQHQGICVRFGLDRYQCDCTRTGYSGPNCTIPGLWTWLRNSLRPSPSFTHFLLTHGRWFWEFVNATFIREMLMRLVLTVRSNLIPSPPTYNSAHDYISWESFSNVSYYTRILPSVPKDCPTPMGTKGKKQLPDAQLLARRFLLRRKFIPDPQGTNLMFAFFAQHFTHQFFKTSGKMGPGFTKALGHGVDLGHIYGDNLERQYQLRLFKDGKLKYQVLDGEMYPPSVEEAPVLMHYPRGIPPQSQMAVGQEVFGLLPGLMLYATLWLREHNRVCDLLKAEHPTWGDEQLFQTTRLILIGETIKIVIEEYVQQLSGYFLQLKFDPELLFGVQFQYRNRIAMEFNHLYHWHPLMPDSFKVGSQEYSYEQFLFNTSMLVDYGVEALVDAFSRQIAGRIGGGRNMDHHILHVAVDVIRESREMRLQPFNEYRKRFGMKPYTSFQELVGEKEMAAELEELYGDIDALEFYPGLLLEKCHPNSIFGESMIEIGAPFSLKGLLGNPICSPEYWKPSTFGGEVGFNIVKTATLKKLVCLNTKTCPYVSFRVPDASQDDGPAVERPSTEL
Experimental: as §1

CN(C1CCc2c(c3ccccc3n2CC(=O)O)C1)S(=O)(=O)c1ccc(F)cc1 (centres unmarked) [TM30089]
% of control Glucocorticoid [1]: 98.9 ± 11.3%
Schild slope mCRTH2 [2]: 1.45 ± 0.08
pA2 mCRTH2 [2]: 9.15 ± 0.11
% of control ChemR23 [3]: 96.6 ± 1.6%
% of control C3a [4]: 88.7 ± 5.9%
% of control COX1 [5]: 109.6 ± 3.6%

O=C(O)CCn1c2c(c3ccccc31)C[C@H](NS(=O)(=O)c1ccc(F)cc1)CC2 [ramatroban, reference compound]
Schild slope mCRTH2 [2]: 0.94 ± 0.05
Kb ([2]; read-out: pA2 mCRTH2 (converted)): 8.32 nM
